According to the supplement of paper PMC8671470:

The compounds below were run on ML-2 (assay: cell viability (% survival relative to DMSO control, bortezomib = 0%); higher = less cytotoxic). Settings: 1000 nM; 72 h.
Outline: (§1)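 Fifteen myeloid leukaemia cell lines were exposed to compounds at 1, 10, 100, 1000 or 10000 nM in 384-well plates for 72 h at 37 °C and 5% CO2. Viability was read by CellTiter-Glo luminescence and normalised, with vehicle as 100% and a 10 µM positive control as 0%. Values are percent survival averaged over duplicates.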
`CCc1oc2ccccc2c1C(=O)c1cc(Br)c(O)c(Br)c1` [Benzbromarone] gave a cell viability of 93.4%. Compound `CCOC(=O)c1sc(NC(=O)c2ccco2)c(SC#N)c1C` [CBR-5884] has a cell viability of 99.3%. `O=C(/C=C/c1ccc(O)c(O)c1)OCCc1ccccc1` [Caffeic acid phenethyl ester] was tested, and the cell viability was 61.4%. `CCCCCOC(=O)Nc1nc(=O)n([C@@H]2O[C@H](C)[C@@H](O)[C@H]2O)cc1F` [Capecitabine] gave a cell viability of 94.1%. In the case of `Cc1ccc(-c2cc(C(F)(F)F)nn2-c2ccc(S(N)(=O)=O)cc2)cc1` [Celecoxib], the cell viability is reported as 87.4%. `O=c1c(-c2ccc(O)cc2)coc2cc(O[C@@H]3O[C@H](CO)[C@@H](O)[C@H](O)[C@H]3O)ccc12` [Daidzin] showed a cell viability of 112%. In the case of `CCN(CC)C(=S)SSC(=S)N(CC)CC` [Disulfiram], the cell viability is reported as 6.36%. `c1cc(-c2cnn3cc(-c4ccc(OCCN5CCCCC5)cc4)cnc23)ccn1` [Dorsomorphin] gave a cell viability of 88.3%. In the case of `C[C@H]1c2cccc(O)c2C(=O)C2C(=O)[C@]3(O)C(=O)C(C(N)=O)C(=O)[C@@H](N(C)C)[C@@H]3[C@@H](O)[C@@H]21` (some centres undefined) [Doxycycline], the cell viability is reported as 90%.

Same assay, conditions: 10000 nM; 72 h
`Cc1c(Cl)cccc1S(=O)(=O)Nc1nc(CC(=O)N2CCN(C)CC2)cs1` [BVT-2733] showed a cell viability of 99.6%. For `CCc1oc2ccccc2c1C(=O)c1cc(Br)c(O)c(Br)c1` [Benzbromarone], the cell viability was 109%. `CCOC(=O)c1sc(NC(=O)c2ccco2)c(SC#N)c1C` [CBR-5884] was tested, and the cell viability was 60.5%. With `O=C(/C=C/c1ccc(O)c(O)c1)OCCc1ccccc1` [Caffeic acid phenethyl ester] the cell viability was 2.29%. `CCCCCOC(=O)Nc1nc(=O)n([C@@H]2O[C@H](C)[C@@H](O)[C@H]2O)cc1F` [Capecitabine] was tested, and the cell viability was 98.3%. Work on `Cc1ccc(-c2cc(C(F)(F)F)nn2-c2ccc(S(N)(=O)=O)cc2)cc1` [Celecoxib] yielded a cell viability of 76.8%. With `O=c1c(-c2ccc(O)cc2)coc2cc(O[C@@H]3O[C@H](CO)[C@@H](O)[C@H](O)[C@H]3O)ccc12` [Daidzin] the cell viability was 97.8%. With `CCN(CC)C(=S)SSC(=S)N(CC)CC` [Disulfiram] the cell viability was 11.6%. In the case of `c1cc(-c2cnn3cc(-c4ccc(OCCN5CCCCC5)cc4)cnc23)ccn1` [Dorsomorphin], the cell viability is reported as 44.1%. `C[C@H]1c2cccc(O)c2C(=O)C2C(=O)[C@]3(O)C(=O)C(C(N)=O)C(=O)[C@@H](N(C)C)[C@@H]3[C@@H](O)[C@@H]21` (some centres undefined) [Doxycycline] showed a cell viability of 45.9%.

Each compound was assayed on KG-1 in the same assay as above. Settings: 1 nM; 72 h.
Outline: as §1
In the case of `Cc1c(Cl)cccc1S(=O)(=O)Nc1nc(CC(=O)N2CCN(C)CC2)cs1` [BVT-2733], the cell viability is reported as 102%. For `CCc1oc2ccccc2c1C(=O)c1cc(Br)c(O)c(Br)c1` [Benzbromarone], the cell viability was 95.7%. In the case of `CCOC(=O)c1sc(NC(=O)c2ccco2)c(SC#N)c1C` [CBR-5884], the cell viability is reported as 90.5%. `O=C(/C=C/c1ccc(O)c(O)c1)OCCc1ccccc1` [Caffeic acid phenethyl ester] showed a cell viability of 97.2%. `CCCCCOC(=O)Nc1nc(=O)n([C@@H]2O[C@H](C)[C@@H](O)[C@H]2O)cc1F` [Capecitabine] showed a cell viability of 98.1%. Work on `Cc1ccc(-c2cc(C(F)(F)F)nn2-c2ccc(S(N)(=O)=O)cc2)cc1` [Celecoxib] yielded a cell viability of 96.8%. In the case of `O=c1c(-c2ccc(O)cc2)coc2cc(O[C@@H]3O[C@H](CO)[C@@H](O)[C@H](O)[C@H]3O)ccc12` [Daidzin], the cell viability is reported as 99%. `CCN(CC)C(=S)SSC(=S)N(CC)CC` [Disulfiram] was tested, and the cell viability was 92.7%. For `c1cc(-c2cnn3cc(-c4ccc(OCCN5CCCCC5)cc4)cnc23)ccn1` [Dorsomorphin], the cell viability was 94.4%. `C[C@H]1c2cccc(O)c2C(=O)C2C(=O)[C@]3(O)C(=O)C(C(N)=O)C(=O)[C@@H](N(C)C)[C@@H]3[C@@H](O)[C@@H]21` (some centres undefined) [Doxycycline] showed a cell viability of 106%.

Same assay, conditions: 10 nM; 72 h
Work on `Cc1c(Cl)cccc1S(=O)(=O)Nc1nc(CC(=O)N2CCN(C)CC2)cs1` [BVT-2733] yielded a cell viability of 92.8%. `CCc1oc2ccccc2c1C(=O)c1cc(Br)c(O)c(Br)c1` [Benzbromarone] was tested, and the cell viability was 97.7%. Work on `CCOC(=O)c1sc(NC(=O)c2ccco2)c(SC#N)c1C` [CBR-5884] yielded a cell viability of 83.3%. With `O=C(/C=C/c1ccc(O)c(O)c1)OCCc1ccccc1` [Caffeic acid phenethyl ester] the cell viability was 102%. For `CCCCCOC(=O)Nc1nc(=O)n([C@@H]2O[C@H](C)[C@@H](O)[C@H]2O)cc1F` [Capecitabine], the cell viability was 91.1%. `Cc1ccc(-c2cc(C(F)(F)F)nn2-c2ccc(S(N)(=O)=O)cc2)cc1` [Celecoxib] gave a cell viability of 102%. For `O=c1c(-c2ccc(O)cc2)coc2cc(O[C@@H]3O[C@H](CO)[C@@H](O)[C@H](O)[C@H]3O)ccc12` [Daidzin], the cell viability was 96.6%. `CCN(CC)C(=S)SSC(=S)N(CC)CC` [Disulfiram] gave a cell viability of 89.8%. `c1cc(-c2cnn3cc(-c4ccc(OCCN5CCCCC5)cc4)cnc23)ccn1` [Dorsomorphin] gave a cell viability of 117%. With `C[C@H]1c2cccc(O)c2C(=O)C2C(=O)[C@]3(O)C(=O)C(C(N)=O)C(=O)[C@@H](N(C)C)[C@@H]3[C@@H](O)[C@@H]21` (some centres undefined) [Doxycycline] the cell viability was 91.7%.

Same assay, conditions: 100 nM; 72 h
`Cc1c(Cl)cccc1S(=O)(=O)Nc1nc(CC(=O)N2CCN(C)CC2)cs1` [BVT-2733] was tested, and the cell viability was 94.2%. In the case of `CCc1oc2ccccc2c1C(=O)c1cc(Br)c(O)c(Br)c1` [Benzbromarone], the cell viability is reported as 102%. Work on `CCOC(=O)c1sc(NC(=O)c2ccco2)c(SC#N)c1C` [CBR-5884] yielded a cell viability of 103%. For `O=C(/C=C/c1ccc(O)c(O)c1)OCCc1ccccc1` [Caffeic acid phenethyl ester], the cell viability was 94.7%. With `CCCCCOC(=O)Nc1nc(=O)n([C@@H]2O[C@H](C)[C@@H](O)[C@H]2O)cc1F` [Capecitabine] the cell viability was 103%. Work on `Cc1ccc(-c2cc(C(F)(F)F)nn2-c2ccc(S(N)(=O)=O)cc2)cc1` [Celecoxib] yielded a cell viability of 97.4%. With `O=c1c(-c2ccc(O)cc2)coc2cc(O[C@@H]3O[C@H](CO)[C@@H](O)[C@H](O)[C@H]3O)ccc12` [Daidzin] the cell viability was 100%. In the case of `CCN(CC)C(=S)SSC(=S)N(CC)CC` [Disulfiram], the cell viability is reported as 92.7%. Compound `c1cc(-c2cnn3cc(-c4ccc(OCCN5CCCCC5)cc4)cnc23)ccn1` [Dorsomorphin] has a cell viability of 98.8%. `C[C@H]1c2cccc(O)c2C(=O)C2C(=O)[C@]3(O)C(=O)C(C(N)=O)C(=O)[C@@H](N(C)C)[C@@H]3[C@@H](O)[C@@H]21` (some centres undefined) [Doxycycline] showed a cell viability of 95.9%.

Same assay, conditions: 1000 nM; 72 h
Work on `Cc1c(Cl)cccc1S(=O)(=O)Nc1nc(CC(=O)N2CCN(C)CC2)cs1` [BVT-2733] yielded a cell viability of 98.2%. `CCc1oc2ccccc2c1C(=O)c1cc(Br)c(O)c(Br)c1` [Benzbromarone] gave a cell viability of 94.1%. Work on `CCOC(=O)c1sc(NC(=O)c2ccco2)c(SC#N)c1C` [CBR-5884] yielded a cell viability of 94.3%. With `O=C(/C=C/c1ccc(O)c(O)c1)OCCc1ccccc1` [Caffeic acid phenethyl ester] the cell viability was 61%. With `CCCCCOC(=O)Nc1nc(=O)n([C@@H]2O[C@H](C)[C@@H](O)[C@H]2O)cc1F` [Capecitabine] the cell viability was 97.5%. In the case of `Cc1ccc(-c2cc(C(F)(F)F)nn2-c2ccc(S(N)(=O)=O)cc2)cc1` [Celecoxib], the cell viability is reported as 110%. `O=c1c(-c2ccc(O)cc2)coc2cc(O[C@@H]3O[C@H](CO)[C@@H](O)[C@H](O)[C@H]3O)ccc12` [Daidzin] showed a cell viability of 97.6%. Compound `CCN(CC)C(=S)SSC(=S)N(CC)CC` [Disulfiram] has a cell viability of 2.8%. `c1cc(-c2cnn3cc(-c4ccc(OCCN5CCCCC5)cc4)cnc23)ccn1` [Dorsomorphin] gave a cell viability of 99.8%. `C[C@H]1c2cccc(O)c2C(=O)C2C(=O)[C@]3(O)C(=O)C(C(N)=O)C(=O)[C@@H](N(C)C)[C@@H]3[C@@H](O)[C@@H]21` (some centres undefined) [Doxycycline] gave a cell viability of 95.1%.
